In PubChem BioAssay AID330 (DTP/NCI, 2004):
Where “and” joins values, the source holds several entries; their conditions need not be identical. Equal entries are not always repeated. Toxic doses and inconclusive results are not listed. Rule for the calls: active = survival T/C of 150% or more; inactive = T/C below 125% in these data.

System: P388 leukemia ip, CD2F1 mice, survival T/C
Experiment: NCI In Vivo Anticancer Drug Screen. Data for tumor model P388 Leukemia (intraperitoneal) in CD2F1 (CDF1) mice
Conditions: endpoint: median survival time, higher = longer survival
Outline: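 Mice carrying the transplanted tumor received test compound or vehicle. Survival was recorded in each group, and the value is the treated-group measurement divided by that of the vehicle-treated control group.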

[1] = dose: 60.0 mg/kg/injection, schedule: Q01DX005 (ip), vehicle: saline with Tween-80
[2] = dose: 120.0 mg/kg/injection, schedule: Q01DX005 (ip), vehicle: saline with Tween-80
[3] = dose: 240.0 mg/kg/injection, schedule: Q01DX005 (ip), vehicle: saline with Tween-80
[4] = dose: 60.0 mg/kg/injection, schedule: Q01DX005 (ip), vehicle: saline
[5] = dose: 120.0 mg/kg/injection, schedule: Q01DX005 (ip), vehicle: saline
[6] = dose: 240.0 mg/kg/injection, schedule: Q01DX005 (ip), vehicle: saline
[7] = dose: 50.0 mg/kg/injection, schedule: Q01DX005 (ip), vehicle: Klucel (hydroxypropylcellulose) (HPC)
[8] = dose: 50.0 mg/kg/injection, schedule: Q01DX009 (ip), vehicle: saline with Tween-80
[9] = dose: 100.0 mg/kg/injection, schedule: Q01DX009 (ip), vehicle: saline with Tween-80
[10] = dose: 200.0 mg/kg/injection, schedule: Q01DX009 (ip), vehicle: saline with Tween-80
[11] = dose: 200.0 mg/kg/injection, schedule: Q04DX003 (ip), vehicle: saline with Tween-80
[12] = dose: 50.0 mg/kg/injection, schedule: Q04DX003 (ip), vehicle: saline with Tween-80
[13] = dose: 100.0 mg/kg/injection, schedule: Q04DX003 (ip), vehicle: saline with Tween-80
[14] = dose: 25.0 mg/kg/injection, schedule: Q01DX009 (ip), vehicle: saline with Tween-80
[15] = dose: 100.0 mg/kg/injection, schedule: Q01DX009 (ip), vehicle: saline
[16] = dose: 200.0 mg/kg/injection, schedule: Q01DX009 (ip), vehicle: saline

Measured: T/C

O=[As](O)(O)c1ccc(Nc2nc(Cl)nc(Cl)n2)cc1
inactive: dose: 12.5 mg/kg/injection, schedule: Q01DX009 (ip), vehicle: Klucel (hydroxypropylcellulose) (HPC) 96 % of control | dose: 25.0 mg/kg/injection, schedule: Q01DX009 (ip), vehicle: Klucel (hydroxypropylcellulose) (HPC) 104 % of control

N#CNC1=NC(c2ccccc2O)CC(=O)N1 (centres undefined)
inactive: dose: 100.0 mg/kg/injection, schedule: Q04DX003 (ip), vehicle: suspension in saline 98 % of control | dose: 200.0 mg/kg/injection, schedule: Q04DX003 (ip), vehicle: suspension in saline 105 % of control | dose: 400.0 mg/kg/injection, schedule: Q04DX003 (ip), vehicle: suspension in saline 100 % of control

O=C1OC(c2ccc(F)cc2)CC1CN1CCOCC1 (centres undefined)
inactive: [1] 105 % of control | [2] 105 % of control | [3] 99 % of control

O=C1C[C@@H]2OC3=C(C(=O)CCC3)[C@@H]2O1
inactive: [4] 102 % of control | [5] 121 % of control | [6] 119 % of control

c1ccc2c(c1)ccc1c[n+]3ccccc3cc12
inactive: dose: 0.25 mg/kg/injection, schedule: Q01DX009 (ip), vehicle: saline 100 % of control | dose: 0.5 mg/kg/injection, schedule: Q01DX009 (ip), vehicle: saline 104 % of control | dose: 1.0 mg/kg/injection, schedule: Q01DX009 (ip), vehicle: saline 100 % of control | dose: 1.25 mg/kg/injection, schedule: Q04DX003 (ip), vehicle: other 100 % of control | dose: 2.5 mg/kg/injection, schedule: Q04DX003 (ip), vehicle: other 107 % of control

C=C(Cl)C(=NC(C)(C)C)N(CC)CC
inactive: dose: 12.5 mg/kg/injection, schedule: Q01DX005 (ip), vehicle: Klucel (hydroxypropylcellulose) (HPC) 104 % of control | dose: 25.0 mg/kg/injection, schedule: Q01DX005 (ip), vehicle: Klucel (hydroxypropylcellulose) (HPC) 104 % of control | [7] 107 % of control and 110 % of control

CC(C)c1c(CN(C)C(C)Cc2ccccc2)n(C)n(-c2ccccc2)c1=O (centres undefined)
inactive: [1] 108 % of control | [2] 105 % of control | [3] 98 % of control

CC1CC(C)OC(C(C)(C)C)O1 (centres undefined)
inactive: [4] 107 % of control | [5] 109 % of control | [6] 107 % of control

[Se]=P(c1ccccc1)(c1ccccc1)N1CC1
inactive: dose: 12.5 mg/kg/injection, schedule: Q01DX001 (ip), vehicle: Klucel (hydroxypropylcellulose) (HPC) 99 % of control | dose: 25.0 mg/kg/injection, schedule: Q01DX001 (ip), vehicle: Klucel (hydroxypropylcellulose) (HPC) 104 % of control | dose: 50.0 mg/kg/injection, schedule: Q01DX001 (ip), vehicle: Klucel (hydroxypropylcellulose) (HPC) 101 % of control

Cc1ccc(S(=O)(=O)OCC2OC(OC3(CO)OC(COS(=O)(=O)c4ccc(C)cc4)C(O)C3O)C(O)C(O)C2O)cc1 (centres undefined)
inactive: [8] 100 % of control | [9] 98 % of control | [10] 99 % of control

C=C1C(=O)OC2CC(C)C3C=CC(=O)C3CC12 (centres undefined)
inactive: dose: 0.15 mg/kg/injection, schedule: Q01DX009 (ip), vehicle: Klucel (hydroxypropylcellulose) (HPC) 98 % of control | dose: 0.3 mg/kg/injection, schedule: Q01DX009 (ip), vehicle: Klucel (hydroxypropylcellulose) (HPC) 100 % of control | dose: 0.6 mg/kg/injection, schedule: Q01DX009 (ip), vehicle: Klucel (hydroxypropylcellulose) (HPC) 99 % of control and 103 % of control | dose: 2.34 mg/kg/injection, schedule: Q01DX009 (ip), vehicle: Klucel (hydroxypropylcellulose) (HPC) 102 % of control | dose: 2.4 mg/kg/injection, schedule: Q01DX009 (ip), vehicle: Klucel (hydroxypropylcellulose) (HPC) 104 % of control

CNC(=S)N/N=C/c1nccc(-c2ccccc2)c1C
inactive: [11] 107 % of control

CCC(c1ccc2cc(OC)ccc2c1)C(C)(C)C(=O)F (centres undefined)
inactive: dose: 25.0 mg/kg/injection, schedule: Q04DX003 (ip), vehicle: saline with Tween-80 104 % of control | dose: 33.0 mg/kg/injection, schedule: Q01DX009 (ip), vehicle: saline with Tween-80 104 % of control | [8] 104 % of control | [12] 104 % of control | dose: 75.0 mg/kg/injection, schedule: Q01DX009 (ip), vehicle: saline with Tween-80 122 % of control | [13] 87 % of control

Cc1ccccc1NCC#N
inactive: dose: 12.5 mg/kg/injection, schedule: Q01DX009 (ip), vehicle: saline with Tween-80 100 % of control | [14] 100 % of control | [8] 104 % of control

CCCCCC(Cl)(CC)CCCCC
inactive: [15] 110 % of control | [16] 108 % of control | dose: 400.0 mg/kg/injection, schedule: Q01DX009 (ip), vehicle: saline 109 % of control

CCN(CC)c1ccc(NCS(=O)(=O)O)cc1
inactive: dose: 50.0 mg/kg/injection, schedule: Q04DX003 (ip), vehicle: saline sonified 95 % of control | dose: 100.0 mg/kg/injection, schedule: Q04DX003 (ip), vehicle: saline sonified 90 % of control | dose: 200.0 mg/kg/injection, schedule: Q04DX003 (ip), vehicle: saline sonified 100 % of control

NNC(=O)c1ccccc1
inactive: [14] 104 % of control | [8] 113 % of control | [12] 95 % of control | [13] 100 % of control

CC1(O)CCC2C3CCC4CC(=O)CCC4(C)C3(F)C(O)CC21C (centres undefined)
inactive: [9] 100 % of control | [13] 100 % of control | [10] 100 % of control | [11] 100 % of control | dose: 400.0 mg/kg/injection, schedule: Q01DX009 (ip), vehicle: saline with Tween-80 95 % of control | dose: 400.0 mg/kg/injection, schedule: Q04DX003 (ip), vehicle: saline with Tween-80 100 % of control

CCc1noc2cc(-c3ccccc3)n(C)c(=O)c12
inactive: [7] 100 % of control | dose: 100.0 mg/kg/injection, schedule: Q01DX005 (ip), vehicle: Klucel (hydroxypropylcellulose) (HPC) 104 % of control | dose: 200.0 mg/kg/injection, schedule: Q01DX005 (ip), vehicle: Klucel (hydroxypropylcellulose) (HPC) 105 % of control

CCOC(=O)c1c2n(c3ccccc13)C1(C(=O)OCC)CC1(C(C)=O)C1CN21 (centres undefined)
inactive: dose: 25.0 mg/kg/injection, schedule: Q01DX005 (ip), vehicle: saline with Tween-80 106 % of control | dose: 50.0 mg/kg/injection, schedule: Q01DX005 (ip), vehicle: saline with Tween-80 101 % of control and 108 % of control | dose: 100.0 mg/kg/injection, schedule: Q01DX005 (ip), vehicle: saline with Tween-80 106 % of control and 120 % of control | dose: 200.0 mg/kg/injection, schedule: Q01DX005 (ip), vehicle: saline with Tween-80 117 % of control and 119 % of control

CC1C(=O)C(C)C(c2ccccc2)NC1c1ccccc1 (centres undefined)
inactive: dose: 50.0 mg/kg/injection, schedule: Q01DX009 (ip), vehicle: saline 99 % of control | [15] 98 % of control | [16] 89 % of control

c1cncc(-c2n[nH]c3c2CCc2ccccc2-3)c1
inactive: dose: 12.5 mg/kg/injection, schedule: Q01DX009 (ip), vehicle: other 121 % of control | dose: 37.5 mg/kg/injection, schedule: Q01DX009 (ip), vehicle: other 86 % of control | dose: 50.0 mg/kg/injection, schedule: Q01DX009 (ip), vehicle: other 121 % of control | dose: 75.0 mg/kg/injection, schedule: Q01DX009 (ip), vehicle: other 113 % of control | dose: 100.0 mg/kg/injection, schedule: Q01DX009 (ip), vehicle: other 111 % of control | dose: 150.0 mg/kg/injection, schedule: Q01DX009 (ip), vehicle: other 100 % of control | dose: 200.0 mg/kg/injection, schedule: Q01DX009 (ip), vehicle: other 101 % of control | dose: 300.0 mg/kg/injection, schedule: Q01DX009 (ip), vehicle: other 104 % of control

Cc1ccc(S(=O)(=O)OCCN(CCOS(=O)(=O)c2ccc(C)cc2)S(=O)(=O)c2ccc(C)cc2)cc1
inactive: dose: 50.0 mg/kg/injection, schedule: Q01DX009 (ip), vehicle: Klucel (hydroxypropylcellulose) (HPC) 108 % of control | dose: 100.0 mg/kg/injection, schedule: Q01DX009 (ip), vehicle: Klucel (hydroxypropylcellulose) (HPC) 100 % of control | dose: 200.0 mg/kg/injection, schedule: Q01DX009 (ip), vehicle: Klucel (hydroxypropylcellulose) (HPC) 102 % of control | dose: 400.0 mg/kg/injection, schedule: Q01DX009 (ip), vehicle: Klucel (hydroxypropylcellulose) (HPC) 95 % of control
